For assay [1], the system named is EphB4. Nature of the assay: EGF regulation of EphB4 in SCC15 cells with kinase inhibitors (Western blot). The settings on record: for EGF stimulated induction of EphB4: serum-starved SCC15, 10 ng/ml EGF, 24 h; for basal levels of EphB4: serum-starved SCC15, 24 h. The format is cell-based, human. The procedure:
B) SCC15 cells were serum-starved for 24 h prior to an additional 24 incubation as indicated with or without EGF (10 ng/ml), 3 μM U73122, or 5 μM SH-5, 5 μM SP600125, […] LY294002, - - μM PD098095 or 5 μM SB203580. N/A indicates cultures that received equal volume of diluent (DMSO) only. Cell lysates were subjected to Western Blot with EphB4 monoclonal antibody. β-actin signal serves as control of protein loading and transfer.

The test system of assay [2] is human endothelial cells. Put plainly: Endothelial cell chemotaxis / migration (Boyden chamber). The settings on record: umbilical cord and hepatic AECs or VECs; growth factor stimuli. The format is cell-based. The procedure:
Migration is assessed using the 48-well Boyden chamber and 8 μm pore size collagen-coated (10 μg/ml rat tail collagen; Collaborative Laboratories) polycarbonate filters (Osmonics, Inc.). The bottom chamber wells receive 27-29 μl of DMEM medium alone (baseline) or medium containing chemo-attractant (bFGF, VEGF or Swiss 3T3 cell conditioned medium). The top chambers receive 45 μl of HUVEC cell suspension (1×10^6 cells/ml) prepared in DMEM+1% BSA with or without test compound. After 5 h incubation at 37° C., the membrane is rinsed in PBS, fixed and stained in Diff-Quick solutions. The filter is placed on a glass slide with the migrated cells facing down and cells on top are removed using a Kimwipe. The testing is performed in 4-6 replicates and five fields are counted from each well. Negative unstimulated control values are subtracted from stimulated control and drug treated values and data is plotted as mean migrated cell±S.D. IC50 is calculated from the plotted data.
Chemotaxis of HUVECs to VEGF was assessed using a modified Boyden chamber, transwell membrane filter inserts in 24 well plates, 6.5 mm diam, 8 μm pore size, 10 μm thick matrigel coated, polycarbonate membranes (BD Biosciences). The cell suspensions of HUVECs (2×10^5 cells/ml) in 200 μl of EBM were seeded in the upper chamber and the soluble EphB4 protein were added simultaneously with stimulant (VEGF or bFGF) to the lower compartment of the chamber and their migration across a polycarbonate filter in response to 10-20 ng/ml of VEGF with or without 100 nM-1 μM test compound was investigated. After incubation for 4-24 h at 37° C., the upper surface of the filter was scraped with swab and filters were fixed and stained with Diff Quick. Ten random fields at 200× mag were counted and the results expressed as mean # per field. Negative unstimulated control values were subtracted from stimulated control and protein treated sample values and the data was plotted as mean migrated cell±S.D. IC50 was calculated from the plotted data.

In assay [3] the test system is HUVEC. Nature of the assay: Endothelial cell tube (cord) formation on Matrigel. In kind it is cell-based, human. The procedure:
Cord formation assay of HUVEC in Matrigel™ (upper row). Cells in exponential growth phase were treated overnight with the indicated concentrations of EphB4 extracellular domain (ECD) prior to plating on Matrigel™. Cells were trypsinized and plated (1×10^5 cells/well) in a 24-well plate containing 0.5 ml Matrigel™. Shown are representative 20× phase contrast fields of cord formation after 8 hr plating on Matrigel™ in the continued presence of the test compounds as shown. Original magnification 200×. KS-SLK cells treated in a similar manner (middle row) in a cord formation assay on Matrigel™. […] After 7 days the plugs were removed, sectioned and stained with H&E to visualize cells migrating into the matrix.
Matrigel (60 μl of 10 mg/ml; Collaborative Lab #35423) is placed in each well of an ice-cold 96-well plate. The plate is allowed to sit at room temperature for 15 minutes then incubated at 37° C. for 30 minutes to permit the matrigel to polymerize. In the mean time, HUVECs are prepared in EGM-2 (Clonetic #CC3162) at a concentration of 2×10^5 cells/ml. The test compound is prepared at 2× the desired concentration (5 concentration levels) in the same medium. Cells (500 μl) and 2× drug (500 μl) is mixed and 200 μl of this suspension are placed in duplicate on the polymerized matrigel. After 24 h incubation, triplicate pictures are taken for each concentration using a Bioquant Image Analysis system. Drug effect (IC50) is assessed compared to untreated controls by measuring the length of cords formed and number of junctions.
Matrigel (60 μl of 10 mg/ml; Collaborative Lab, Cat. No. 35423) was placed in each well of an ice-cold 96-well plate. The plate was allowed to sit at room temperature for 15 minutes then incubated at 37° C. for 30 minutes to permit Matrigel to polymerize. In the mean time, human umbilical vein endothelial cells were prepared in EGM-2 (Clonetic, Cat. No. CC3162) at a concentration of 2×10^5 cells/ml. The test protein was prepared at 2× the desired concentration (5 concentration levels) in the same medium. Cells (500 μl) and 2× protein (500 μl) were mixed and 200 μl of this suspension were placed in duplicate on the polymerized Matrigel. After 24 h incubation, triplicate pictures were taken for each concentration using a Bioquant Image Analysis system. Protein addition effect (IC50) was assessed compared to untreated controls by measuring the length of cords formed and number of junctions.

For assay [4], the system named is EphB4 receptor. Nature of the assay: Cell-based EphB4 tyrosine kinase assay in PC3 cells. Details: species or system human. The settings on record: Ephrin B2-Fc ligand preincubated with protein. The procedure:
All four proteins were also tested for their ability to block ligand-dependent dimerization and activation of Eph B4 receptor kinase in PC3 cells. The PC3 human prostate cancer cell line is known to express elevated levels of human Eph B4. Stimulation of PC3 cells with Ephrin B2 IgG Fc fusion protein leads to a rapid induction of tyrosine phosphorylation of the receptor. However, preincubation of the ligand with GCF2, GCF1 or GC, but not CF2 proteins suppresses subsequent EphB4 autophosphorylation.
The human prostate carcinoma cell line PC3 cells were maintained in RPMI medium with 10% dialyzed fetal calf serum and 1% penicillin/streptomycin/neomycin antibiotics mix. Cells were maintained at 37° C. in a humidified atmosphere of 5% CO2/95% air. Typically, cells were grown in 60 mm dishes until confluency and were either treated with mouse Ephrin B2-Fc fusion at 1 μg/ml in RPMI for 10 min to activate EphB4 receptor or plain medium as a control. To study the effect of different derivatives of soluble EphB4 ECD proteins on EphB4 receptor activation, three sets of cells were used. In the first set, cells were treated with various proteins (5 proteins; GC, GCF1, GCF2, GCF2-F, CF2) at 5 μg/ml for 20 min. In the second set of cells, prior to application, proteins were premixed with ephrinB2-Fc at 1:5 (EphB4 protein:B2-Fc) molar ratio, incubated for 20 min and applied on cells for 10 min. In the third set of cells, cells were first treated with the proteins for 20 min at 5 μg/ml, media was replaced with fresh media containing 1 μg/ml of EphrinB2-Fc and incubated for another 10 min.
After the stimulation, cells were immediately harvested with protein extraction buffer containing 20 mM Tris-HCl, pH 7.4, 150 mM NaCl, 1% (v/v) Triton X100, 1 mM EDTA, 1 mM PMSF, 1 mM Sodium vanadate. Protein extracts were clarified by centrifugation at 14,000 rpm for 20 min at 4° C. Clarified protein samples were incubated overnight with protein A/G coupled agarose beads pre-coated with anti-EphB4 monoclonal antibodies. The IP complexes were washed twice with the same extraction buffer containing 0.1% Triton X100. The immunoprecipitated proteins were solubilized in 1×SDS-PAGE sample loading buffer and separated on 10% SDS-PAGE. For EphB4 receptor activation studies, electroblotted membrane was probed with anti-pTyr specific antibody 4G10 at 1:1000 dilution followed by Protein G-HRP conjugate at 1:5000 dilutions.

For assay [5], the target named is T1, EphrinB2 (Homo sapiens, UniProt P52799).
T1 construct: protein fusion of Ephrin B2 ectodomain with placental alkaline phosphatase
T1 sequence (P52799 28-229 limits assumed): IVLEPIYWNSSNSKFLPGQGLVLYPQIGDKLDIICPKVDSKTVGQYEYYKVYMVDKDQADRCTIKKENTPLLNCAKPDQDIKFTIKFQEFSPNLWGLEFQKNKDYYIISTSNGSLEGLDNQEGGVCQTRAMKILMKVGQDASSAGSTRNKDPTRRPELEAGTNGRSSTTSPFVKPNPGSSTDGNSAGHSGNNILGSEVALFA
Put plainly: Ephrin B2-AP binding to immobilized EphB4EC proteins. The settings on record: B4 proteins immobilized on Ni2+-resin or nitrocellulose. The procedure: 10 μl of Ni-NTA-Agarose were incubated in microcentrifuge tubes with 50 μl of indicated amount of B4ECv3 diluted in binding buffer BB (20 mM Tris-HCl, 0.15 M NaCl, 0.1% bovine serum albumin pH 8) After incubation for 30 min on shaking platform, Ni-NTA beads were washed twice with 1.4 ml of BB, followed by application of 50 μl of B2-AP in the final concentration of 50 nM. Binding was performed for 30 min on shaking platform, and then tubes were centrifuged and washed one time with 1.4 ml of BB. Amount of precipitated AP was measured colorimetrically after application of PNPP.
To confirm ability of the purified recombinant proteins to bind Ephrin B2, they were tested in an in vitro binding assay. As expected, GC, GCF1 and GCF2, but not CF2 are binding the cognate ligand Ephrin B2 as confirmed by interaction between Ephrin B2-alkaline phosphatase (Ephrin B2-AP) fusion protein with the B4 proteins immobilized on Ni^2+-resin or on nitrocellulose membrane (FIG. 17).

On to `COc1cccc(-c2cc(=O)c3ccccc3o2)c1N` [PD098095], for which, in assay [1], the “EGF stimulated induction of EphB4” value is reported as “no discernible effect” and the “basal levels of EphB4” value was “reduced”.

Regarding `C[S+]([O-])c1ccc(-c2nc(-c3ccncc3)c(-c3ccc(F)cc3)[nH]2)cc1` (centres unmarked) [SB203580], the “basal levels of EphB4” value in assay [1] is given as “increased”.

On to `CCCCCCCCCCCCCCCCCCOC[C@H](COP(=O)(O)O[C@H]1[C@H](O)[C@@H](O)[C@H](O)C[C@H]1OC)OC` [SH-5], for which, in assay [1], the “EGF stimulated induction of EphB4” value was “blocked” and the “basal levels of EphB4” value was “reduced”.

For the molecule `COc1ccc2c(c1)CC[C@@H]1[C@@H]2CC[C@]2(C)[C@@H](NCCCCCCN3C(=O)C=CC3=O)CC[C@@H]12` [U73122], in assay [1], the “EGF stimulated induction of EphB4” value is “blocked” and the “basal levels of EphB4” value is “reduced”.

Turning to “B2EC-FC: Ephrin B2 extracellular domain fused to human IgG1 Fc fragment, SEQ ID NO:5”, the “chemotaxis of human endothelial cells” value in assay [2] was “blocked chemotaxis”. For the same molecule, the “endothelial cell tube / tubule / cord formation” value in assay [3] is reported as “inhibition”.

B1: GCF1: EphB4EC variant, globular, Cys-rich and the first FNIII domain, 6xHis tagged, SEQ ID NO:13 (protein)
chain: MELRVLLCWASLAAALEETLLNTKLETADLKWVTFPQVDGQWEELSGLDEEQHSVRTYEVCEVQRAPGQAHWLRTGWVPRRGAVHVYATLRFTMLECLSLPRAGRSCKETFTVFYYESDADTATALTPAWMENPYIKVDTVAAEHLTRKRPGAEATGKVNVKTLRLGPLSKAGFYLAFQDQGACMALLSLHLFYKKCAQLTVNLTRFPETVPRELVVPVAGSCVVDAVPAPGPSPSLYCREDGQWAEQPVTGCSCAPGFAEGNTKCRACAQGTFKPLSGEGSCQPCPANSHSNTIGSAVCQCRVGYFRARTDPRGAPCTTPPSAPRSVVSRLNGSSLHLEWSAPLESGGREDLTYALRCRECRPGGSCAPCGGDLTFDPGPRDLVEPWVVVRGLRPDFTYTFEVTALNGVSSLATGPVPFEPVNVHHHHHH
modifications: Recombinant GCF
In the case of B1, the EphB4 autophosphorylation result in assay [4] is on record as “suppresses”. In assay [5], the “binding the cognate ligand Ephrin B2” value is “binding”.

B2: B2EC: soluble extracellular domain of human Ephrin B2, SEQ ID NO:3 (protein)
chain: MAVRRDSVWKYCWGVLMVLCRTAISKSIVLEPIYWNSSNSKFLPGQGLVLYPQIGDKLDIICPKVDSKTVGQYEYYKVYMVDKDQADRCTIKKENTPLLNCAKPDQDIKFTIKFQEFSPNLWGLEFQKNKDYYIISTSNGSLEGLDNQEGGVCQTRAMKILMKVGQDASSAGSTRNKDPTRRPELEAGTNGRSSTTSPFVKPNPGSSTDGNSAGHSGNNILGSEVGSHHHHHH
modifications: Recombinant B2EC protein
Regarding B2, the “chemotaxis of human endothelial cells” value in assay [2] is on record as “blocked chemotaxis”.

B3: GC: EphB4EC deletion variant, globular domain and Cys-rich domain, 6xHis tagged, SEQ ID NO:12 (protein)
chain: MELRVLLCWASLAAALEETLLNTKLETADLKWVTFPQVDGQWEELSGLDEEQHSVRTYEVCEVQRAPGQAHWLRTGWVPRRGAVHVYATLRFTMLECLSLPRAGRSCKETFTVFYYESDADTATALTPAWMENPYIKVDTVAAEHLTRKRPGAEATGKVNVKTLRLGPLSKAGFYLAFQDQGACMALLSLHLFYKKCAQLTVNLTRFPETVPRELVVPVAGSCVVDAVPAPGPSPSLYCREDGQWAEQPVTGCSCAPGFEAAEGNTKCRACAQGTFKPLSGEGSCQPCPANSHSNTIGSAVCQCRVGYFRARTDPRGAPCTTPPSAHHHHHH
modifications: Recombinant B4EC-GC
Take B3: the EphB4 autophosphorylation entry in assay [4] was “suppresses”. The “binding the cognate ligand Ephrin B2” value in assay [5] is “binding”.

The values are drawn from patent publication US9533026B2, “Polypeptide compounds for inhibiting angiogenesis and tumor growth” (VasGene Therapeutics, Inc., priority 2004, dated 2017).
